Experimental data from ChEMBL document CHEMBL6083291, “Discovery of Thiochroman Derivatives as Potent, Oral Selective Estrogen Receptor Degraders and Antagonists for the Treatment of Endocrine-Resistant Breast Cancer” (J Med Chem, 2024).

Tests used:
[1] = MRT in Sprague-Dawley rat plasma at 10 mg/kg, po measured for 24 hrs by LC-MS/MS analysis; type: ADME, organism-based
animal or person [2] = settings: Homo sapiens, Tamoxifen-resistant MCF7, po, 504 h, read-out: TGI
[3] = Clearance in Sprague-Dawley rat plasma at 2 mg/kg, iv measured for 24 hrs by LC-MS/MS analysis; type: ADME, organism-based
[4] = Toxicity against Balb/c mouse xenografted with human MCF7 Tam1 cells assessed as changes in body weight at 10 to 30 mg/kg, po qd for 21 days; type: organism-based; settings: in vivo, 504 h, dose 10-30 mg/kg, time 21 day
[5] = Tmax in Sprague-Dawley rat plasma at 20 mg/kg, po measured for 10 hrs by LC-MS/MS analysis; type: ADME, organism-based
[6] = Half life in Sprague-Dawley rat plasma at 10 mg/kg, po measured for 24 hrs by LC-MS/MS analysis; type: ADME, organism-based
[7] = Half life in Sprague-Dawley rat plasma at 20 mg/kg, po measured for 10 hrs by LC-MS/MS analysis; type: ADME, organism-based
[8] = Half life in Sprague-Dawley rat brain at 20 mg/kg, po measured for 10 hrs by LC-MS/MS analysis; type: ADME, organism-based
[9] = AUC(0 to t) in Sprague-Dawley rat plasma at 20 mg/kg, po measured for 10 hrs by LC-MS/MS analysis; type: ADME, organism-based
[10] = MRT in Sprague-Dawley rat brain at 20 mg/kg, po measured for 10 hrs by LC-MS/MS analysis; type: ADME, organism-based
T47D = assay: Antiproliferative activity against human T47D cells assessed as reduction in cell viability
CAMA-1 = assay: Antiproliferative activity against human CAMA-1 cells assessed as reduction in cell viability
[11] = AUC(0 to t) in Sprague-Dawley rat brain at 20 mg/kg, po measured for 10 hrs by LC-MS/MS analysis; type: ADME, organism-based; settings: in vivo
[12] = C0 in Sprague-Dawley rat plasma at 2 mg/kg, iv by LC-MS/MS analysis; type: ADME, organism-based
[13] = Toxicity in Sprague-Dawley rat assessed as thickened endometrium in uterus at 10 mg/kg, po qd for 3 days by Hematoxylin-Eosin staining based analysis; type: organism-based; settings: in vivo, 72 h, time 3 day
[14] = AUC(0 to t) in Sprague-Dawley rat plasma at 10 mg/kg, po measured for 24 hrs by LC-MS/MS analysis; type: ADME, organism-based
[15] = Oral bioavailability in Sprague-Dawley rat at 10 mg/kg measured for 24 hrs by LC-MS/MS analysis; type: ADME, organism-based; settings: in vivo
[16] = MRT in Sprague-Dawley rat plasma at 20 mg/kg, po measured for 10 hrs by LC-MS/MS analysis; type: ADME, organism-based
[17] = Cmax in Sprague-Dawley rat plasma at 10 mg/kg, po measured for 24 hrs by LC-MS/MS analysis; type: ADME, organism-based
[18] = Cmax in Sprague-Dawley rat brain at 20 mg/kg, po measured for 10 hrs by LC-MS/MS analysis; type: ADME, organism-based
animal or person [19] = settings: Homo sapiens, Tamoxifen-resistant MCF7, po, 504 h, read-out: TGI; remark: listed apart in the source
[20] = Tmax in Sprague-Dawley rat brain at 20 mg/kg, po measured for 10 hrs by LC-MS/MS analysis; type: ADME, organism-based
BT-474 = assay: Antiproliferative activity against human BT-474 cells assessed as reduction in cell viability
[21] = AUC(0 to t) in Sprague-Dawley rat plasma at 2 mg/kg, iv measured for 24 hrs by LC-MS/MS analysis; type: ADME, organism-based
[22] = Ratio of drug level in brain to plasma in Sprague-Dawley rat at 20 mg/kg, po measured for 10 hrs by LC-MS/MS analysis; type: ADME, organism-based; settings: brain and plasma
[23] = Antiproliferative activity against endocrine-resistant human MCF7 Tam1 cells assessed as inhibition of cell growth; settings: Tamoxifen-resistant MCF7
MDA-MB-361 = assay: Antiproliferative activity against human MDA-MB-361 cells assessed as reduction in cell viability
MCF7 [24] = assay: Antiproliferative activity against human MCF7 cells harboring ER-alpha Y537S mutant assessed as inhibition of cell growth
[25] = Cmax in Sprague-Dawley rat plasma at 20 mg/kg, po measured for 10 hrs by LC-MS/MS analysis; type: ADME, organism-based
MCF7 [26] = assay: Antiproliferative activity against human MCF7 cells assessed as reduction in cell viability incubated for 6 days by CellTiter-Glo reagent based luminescence analysis; settings: mcf7
[27] = Tmax in Sprague-Dawley rat plasma at 10 mg/kg, po measured for 24 hrs by LC-MS/MS analysis; type: ADME, organism-based
[28] = Volume of distribution at steady state in Sprague-Dawley rat plasma at 2 mg/kg, iv measured for 24 hrs by LC-MS/MS analysis; type: ADME, organism-based; settings: read-out: Vdss
[29] = Half life in Sprague-Dawley rat plasma at 2 mg/kg, iv measured for 24 hrs by LC-MS/MS analysis; type: ADME, organism-based
[30] = MRT in Sprague-Dawley rat plasma at 2 mg/kg, iv measured for 24 hrs by LC-MS/MS analysis; type: ADME, organism-based
[31] = Ratio of drug level in brain to plasma in mouse; type: ADME; settings: brain and plasma

**Q.** Which MRT [1] does the source give for `COc1cc(F)ccc1[C@H]1CSc2cc(O)ccc2[C@H]1c1ccc(OCCN2CC(CF)C2)cc1` here?
**A.** Its MRT is 13.4 h.

**Q.** And the inhibition in vivo at 10 mg/kg (animal or person [2])?
**A.** Its inhibition in vivo at 10 mg/kg is 26.8%.

**Q.** And the clearance [3]?
**A.** Its clearance is 23.3 mL/min/kg.

**Q.** And the Activity [4]?
**A.** The Activity was “Non-toxic”.

**Q.** And the Tmax [5]?
**A.** Its Tmax is 6 h.

**Q.** And the half-life [6]?
**A.** Its half-life is 8.9 h.

**Q.** And the half-life [7]?
**A.** The half-life was 5.6 h.

**Q.** What about the half-life [8] of the same compound?
**A.** The half-life was 7 h.

**Q.** And the AUC(0-t) at 10 h [9]?
**A.** Its AUC(0-t) at 10 h is 3660 ng·h/mL.

**Q.** What about the MRT [10] of the same compound?
**A.** Its MRT is 12.4 h.

**Q.** What about the IC50 (T47D) of the same compound?
**A.** The IC50 was 4 nM.

**Q.** What about the IC50 (CAMA-1) of the same compound?
**A.** Its IC50 is 4 nM.

**Q.** What about the AUCt [11] of the same compound?
**A.** Its AUCt is 11170 ng·h/g.

**Q.** What about the C0 [12] of the same compound?
**A.** Its C0 is 741 ng/mL.

**Q.** And the Activity [13]?
**A.** The Activity was “Non-toxic”.

**Q.** What about the AUC(0-t) at 24 h [14] of the same compound?
**A.** The AUC(0-t) at 24 h was 1360 ng·h/mL.

**Q.** What about the bioavailability [15] of the same compound?
**A.** The bioavailability was 19.9%.

**Q.** And the MRT [16]?
**A.** Its MRT is 10.6 h.

**Q.** What about the Cmax [17] of the same compound?
**A.** The Cmax was 198 ng/mL.

**Q.** What about the Cmax [18] of the same compound?
**A.** Its Cmax is 1470 ng/g.

**Q.** And the inhibition in vivo at 30 mg/kg (animal or person [19])?
**A.** Its inhibition in vivo at 30 mg/kg is 64.5%.

**Q.** What about the Tmax [20] of the same compound?
**A.** Its Tmax is 6 h.

**Q.** What about the IC50 (BT-474) of the same compound?
**A.** Its IC50 is 4 nM.

**Q.** And the AUC(0-t) at 24 h [21]?
**A.** Its AUC(0-t) at 24 h is 1370 ng·h/mL.

**Q.** And the Kp at 10 h [22]?
**A.** The Kp at 10 h was 3.05.

**Q.** What about the IC50 [23] of the same compound?
**A.** Its IC50 is 5.37 nM.

**Q.** What about the IC50 (MDA-MB-361) of the same compound?
**A.** The IC50 was about 15 nM.

**Q.** And the IC50 (MCF7 [24])?
**A.** Its IC50 is 10.6 nM.

**Q.** And the Cmax [25]?
**A.** Its Cmax is 509 ng/mL.

**Q.** What about the IC50 (MCF7 [26]) of the same compound?
**A.** Its IC50 is 0.25 nM.

**Q.** What about the Tmax [27] of the same compound?
**A.** The Tmax was 3 h.

**Q.** What about the Vd [28] of the same compound?
**A.** The Vd was 6.6 L/kg.

**Q.** What about the half-life [29] of the same compound?
**A.** Its half-life is 4 h.

**Q.** And the MRT [30]?
**A.** Its MRT is 5.24 h.

**Q.** With `CCNCCc1ccc(CN(CC)c2cc(OC)ccc2[C@@H]2CCc3cc(O)ccc3C2)cc1` [ELACESTRANT] as the compound, how does the Kp [31] read?
**A.** Its Kp is 0.36.
